pIC50: −log10 of the molar value. Read-outs that look alike come from different tables or passages of the source.
Tests used:
L-6 cells [1] = assay: In vitro cytotoxicity with L-6 cells (resazurin); assay type: cell-based, rat
Description: (§1) Serial drug dilutions of 11 3-fold dilution steps covering a range from 100 to 0.002 μg/mL were prepared. After 70 h of incubation, the plates were inspected under an inverted microscope to assure the growth of the controls and sterile conditions. […] The plates were read with a Spectramax Gemini XS microplate fluorometer (Molecular Devices Cooperation, Sunnyvale, CA, USA) using an excitation wavelength of 536 nm and an emission wavelength of 588 nm. The IC50 values were calculated by linear regression from the sigmoidal dose inhibition curves using SoftmaxPro software Version 8.2.1 (Molecular Devices Cooperation, Sunnyvale, CA, USA). Podophyllotoxin (Sigma P4405) was used as control.

P. falciparum NF54 [2] = assay: In vitro microplate assay against P. falciparum (3H-hypoxanthine incorporation); assay type: cell-based, Plasmodium falciparum; details: for S.I. = IC50 (Cyt.)/IC50 (P.f.NF54): L-6 cells vs P.f. NF54
Description: In vitro activity against the erythrocytic stages of P. falciparum was determined using a ^3H-hypoxanthine incorporation assay, using the drug sensitive NF54 strain [37]. […] The 96-well plates were incubated in a humidified atmosphere at 37 °C, 4% CO2, 3% O2 and 93% N2. After 48 h, 0.05 mL of ^3H-hypoxanthine (=0.5 µCi) was added to each well of the plate. The plates were incubated for a further 24 h under the same conditions. The plates were then harvested with a Betaplate cell harvester (Wallac, Zurich, Switzerland). The red blood cells were transferred onto a glass fiber filter and washed with distilled water. The dried filters were inserted into a plastic foil with 10 mL of scintillation fluid and counted in a Betaplate liquid scintillation counter (Wallac, Zurich, Switzerland). The IC50 values were calculated from sigmoidal inhibition curves by linear regression using Microsoft Excel. Chloroquine (Sigma C6628) was used as control.

L-6 cells [3] = test system: L-6 cells; set-up: method as in PMID 33925485; details: formerly prepared compounds 1–5; read-out: Cytotoxicity L-6 Cells IC50; cited from earlier work
P. falciparum NF54 [4] = test system: P. falciparum NF54; set-up: method as in PMID 33925485; details: formerly prepared compounds 1–5, cited from earlier work; for pIC50: chloroquine-sensitive strain NF54, read-out: P.f. NF54 IC50
CYP3A4 = CYP3A4 (Homo sapiens, UniProt P08684); assay: Cytochrome P450 3A4 inhibition assay (P450-Glo, Luciferin-IPA); details: recombinant human CYP3A4 Supersomes (+ oxidoreductase + b5), pH 7.4, probe Luciferin-IPA
Description: The CYP3A4 inhibition assay was performed using 96-well white plates (Greiner Bio-One) at a pH of 7.4. […] Stock solutions were further diluted to a final concentration of 20 µM using water (HPLC grade). The luciferin IPA stock solution (3 mM) was diluted to a final concentration of 0.3 mM using water (HPLC grade). The CYP3A4 reaction mixture was prepared by mixing water (HPLC grade) with potassium phosphate buffer (1 M), luciferin IPA (0.3 mM) and CYP3A4 membrane (1 pmol/µL). The control reaction mixture was prepared using water (HPLC grade), potassium phosphate buffer (1 M), luciferin IPA (0.3 mM) and membrane without CYP activity (1 pmol/µL). Solutions A and B of the NADPH regeneration system were mixed and HPLC grade water was added. The reconstituted luciferin detection reagent was prepared by mixing the reconstituted buffer with esterase with the luciferin detection reagent. Then, solutions of test compounds and standard were added to the wells of the 96-well white plate; each was tested in triplicate. The CYP3A4 reaction mixture was added to each well and the plate was incubated for 10 min at room temperature. After that, the NADPH regeneration system was added, inducing the reaction followed by an incubation time of 10 min at ambient temperature. By adding the reconstituted luciferin detection reagent, the reaction was terminated and a luminescent signal was formed. Luminescence was measured by a SpectraMax M3 UV plate reader (Molecular Devices). The relative light units (RLU) were received from a calibration curve with beetle luciferin. […] The CYP3A4 inhibition (%) was calculated from the RLU.

[5] = In vitro cytotoxicity with L-6 cells (resazurin); assay type: cell-based, rat; details: rat
Description: as §1

[6] = rat skeletal myofibroblasts, average of four determinations, read-out: Cytotoxicity L-6 Cells IC50

Chain of CYP3A4 (P08684 2-503 limits assumed): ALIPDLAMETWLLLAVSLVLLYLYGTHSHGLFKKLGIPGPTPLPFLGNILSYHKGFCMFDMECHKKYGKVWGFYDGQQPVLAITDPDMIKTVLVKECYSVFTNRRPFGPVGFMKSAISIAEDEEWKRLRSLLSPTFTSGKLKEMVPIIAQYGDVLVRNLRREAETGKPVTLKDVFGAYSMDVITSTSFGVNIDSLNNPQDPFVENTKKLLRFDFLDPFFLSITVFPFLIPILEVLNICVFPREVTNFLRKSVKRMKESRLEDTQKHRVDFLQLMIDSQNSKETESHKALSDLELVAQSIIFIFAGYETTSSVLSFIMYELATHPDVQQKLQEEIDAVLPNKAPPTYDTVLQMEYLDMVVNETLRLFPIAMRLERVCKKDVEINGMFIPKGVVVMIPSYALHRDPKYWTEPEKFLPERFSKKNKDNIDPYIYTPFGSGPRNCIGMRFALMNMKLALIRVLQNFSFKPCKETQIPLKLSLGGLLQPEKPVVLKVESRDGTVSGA

| Compound | pIC50 (L-6 cells [3]) | pIC50 (P. falciparum NF54 [4]) | S.I. = IC50 (Cyt.)/IC50 (P.f.NF54) (P. falciparum NF54 [4]) | also measured |
| --- | --- | --- | --- | --- |
| CCN(CC)CCCC(C)Nc1ccnc2cc(Cl)ccc12 (stereo not drawn) [CQ, chloroquine, reference compound] |  |  |  | pIC50 (L-6 cells [1]; [6]): 4.04; S.I. = IC50 (Cyt.)/IC50 (P.f.NF54) (P. falciparum NF54 [2]): 9672; pIC50 (P. falciparum NF54 [2]; Plasmodium falciparum, NF54, read-out: P.f. NF54 IC50): 8.05 |
| CCOc1ccc(-c2nonc2NC(=O)c2cccc(F)c2)cc1OCC [Compound 3] | 4.39 | 7.31 | 839.6 |  |
| CCOc1ccc(-c2nonc2NC(=O)c2ccccc2)cc1OCC [Compound 2] | 3.95 | 7.12 | 1463 |  |
| COc1cc([C@@H]2c3cc4c(cc3[C@H](O)[C@H]3COC(=O)[C@H]23)OCO4)cc(OC)c1OC [POD, podophyllotoxin, reference compound] |  |  |  | pIC50 (L-6 cells [1]; [6]): 7.92 |
| CCOc1ccc(-c2nonc2NC(=O)c2ccc(OC)c(Cl)c2)cc1OCC [Compound 5] | 4.70 | 7.85 | 1431 |  |
| CCOc1ccc(-c2nonc2NC(=O)c2cccc(C)c2)cc1OCC [Compound 1, reference compound] | 3.80 | 7.96 | 14,483 | inhibition at 10 min, 20 µM (CYP3A4): 45% |
| Cc1cccc(C(=O)Nc2nonc2-c2ccc(Cl)cc2)c1 [Compound 47, N-[4-(4-Chlorophenyl)-1,2,5-oxadiazol-3-yl]-3-methylbenzamide] |  |  |  | IC50 at 72 h [5]: 136 µM; S.I. = IC50 (Cyt.)/IC50 (P.f.NF54) (P. falciparum NF54 [2]): 15.54; pIC50 (P. falciparum NF54 [2]; Plasmodium falciparum, NF54, chloroquine-sensitive strain NF54, average of four determinations, read-out: P.f. NF54 IC50): 5.06; inhibition at 10 min, 20 µM (CYP3A4): 57%; melting point: 165 °C |
| CCOc1ccc(-c2nonc2NC(=O)c2cccc(C(F)(F)F)c2)cc1OCC [Compound 4] | 5.00 | 7.72 | 524.6 |  |
| N-[4-(4-Fluorophenyl)-3-(trifluoromethyl)-1,2,5-oxadiazol-3-yl]benzamide [Compound 50] |  |  |  | pIC50 (L-6 cells [1]): 5.13; pIC50 (P. falciparum NF54 [2]; chloroquine-sensitive strain NF54, average of four determinations, read-out: P.f. NF54 IC50): 5.06 |

Source: PMC10572347, “Structure–Activity Relationships and Antiplasmodial Potencies of Novel 3,4-Disubstituted 1,2,5-Oxadiazoles” (International Journal of Molecular Sciences, 2023)
